Experiment [1] has as its target T1, Cyclin-dependent kinase 4/cyclin D1 (Homo sapiens, UniProt P11802). Put plainly: Inhibitory activity against Cyclin D1-cyclin-dependent kinase 4 in enzymatic assay by measuring phosphorylation of RbING. In kind it is protein-complex assay.
Experiment [2] has as its system HCT-116. Put plainly: In vitro antiproliferative activity against human carcinoma cell line HCT116 (colon). In kind it is functional, cell-based.
Experiment [3] concerns NCI-H460. Put plainly: In vitro antiproliferative activity against human carcinoma cell line H460 (lung). Type of experiment: functional, cell-based.
In experiment [4] the target is cAMP-dependent protein kinase (PKA) (Homo sapiens, UniProt P22694+P17612+P22612). Put plainly: Inhibitory activity against Protein kinase A (Histone). In kind it is protein assay.
For experiment [5], the target named is Cyclin-dependent kinase 2/cyclin E (Homo sapiens, UniProt P24941). Put plainly: Inhibitory activity against Cyclin E-cyclin-dependent kinase 2 in enzymatic assay by measuring phosphorylation of RbING. In kind it is protein-complex assay.
For experiment [6], the target named is T1, Cyclin-dependent kinase 4/cyclin D1. Put plainly: Inhibitory activity against Cyclin D1-cyclin-dependent kinase 4 in enzymatic assay by measuring phosphorylation of Rb21. In kind it is protein-complex assay.

Data on 35 compounds can be found in ChEMBL document CHEMBL1136094, “Novel, potent and selective cyclin D1/CDK4 inhibitors: indolo[6,7-a]pyrrolo[3,4-c]carbazoles” (Bioorg Med Chem Lett, 2003).

For orientation: IC50 means the point on the concentration scale where inhibition reaches its midpoint. Read a low IC50 as greater potency.

T1 sequence (P11802 whole entry): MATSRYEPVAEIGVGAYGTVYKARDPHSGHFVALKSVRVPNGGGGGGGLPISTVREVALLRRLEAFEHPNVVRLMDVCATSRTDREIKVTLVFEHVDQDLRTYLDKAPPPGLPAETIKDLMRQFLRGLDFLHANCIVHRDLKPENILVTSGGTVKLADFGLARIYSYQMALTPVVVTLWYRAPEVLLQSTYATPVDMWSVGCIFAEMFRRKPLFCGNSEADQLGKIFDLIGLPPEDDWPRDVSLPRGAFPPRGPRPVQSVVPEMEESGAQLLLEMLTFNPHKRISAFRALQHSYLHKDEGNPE
T1 sequence (P24385 whole entry, further chain): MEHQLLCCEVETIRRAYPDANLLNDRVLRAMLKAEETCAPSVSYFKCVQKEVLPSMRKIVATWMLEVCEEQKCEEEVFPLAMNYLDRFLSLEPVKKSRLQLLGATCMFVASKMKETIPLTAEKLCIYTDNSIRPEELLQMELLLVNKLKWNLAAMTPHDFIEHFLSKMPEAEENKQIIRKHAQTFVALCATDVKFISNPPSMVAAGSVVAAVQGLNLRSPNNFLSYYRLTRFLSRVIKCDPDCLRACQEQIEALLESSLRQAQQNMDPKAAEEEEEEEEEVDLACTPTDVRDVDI

Take `Cc1cc2ccn(C)c2c2c3c(c4c5ccccc5n(CCCCO)c4c12)C(=O)NC3=O`: the IC50 in experiment [1] was more than 2 µM; in experiment [2], more than 10 µM; in experiment [3], more than 10 µM; in experiment [4], 11.7 µM.

Turning to `Cn1ccc2ccc3c4[nH]c5c(CCCO)cccc5c4c4c(c3c21)C(=O)NC4=O`, the IC50 is 0.558 µM in experiment [5]; 0.04 µM in experiment [6]; 0.168 µM in experiment [1]; 3.02 µM in experiment [2]; 2.35 µM in experiment [3]; more than 20 µM in experiment [4].

As for `Cn1ccc2cc(F)c3c4[nH]c5ccccc5c4c4c(c3c21)C(=O)NC4=O`, the IC50 is 0.086 µM in experiment [5]; 0.016 µM in experiment [6]; 0.067 µM in experiment [1]; 3.49 µM in experiment [2]; 2.9 µM in experiment [3]; more than 20 µM in experiment [4].

As for `Cn1ccc2ccc3c4[nH]c5c(Br)cccc5c4c4c(c3c21)C(=O)NC4=O`, the IC50 in experiment [1] stood at 0.093 µM; in experiment [2], 17.1 µM; in experiment [3], 13.8 µM.

As to `Cn1ccc2ccc3c4[nH]c5cc(C#N)ccc5c4c4c(c3c21)C(=O)NC4=O`, the IC50 in experiment [5] was 0.01 µM; in experiment [6] it was 0.011 µM; in experiment [1] it was 0.029 µM; in experiment [2], more than 10 µM; in experiment [3], more than 10 µM; in experiment [4], more than 20 µM.

Consider `CCc1ccc2c(c1)[nH]c1c3ccc4ccn(C)c4c3c3c(c21)C(=O)NC3=O`, for which the IC50 in experiment [6] was 0.022 µM; in experiment [1], 0.101 µM; in experiment [2] it was 3.51 µM; in experiment [3], 7.49 µM; in experiment [4] it was more than 20 µM.

`Cn1ccc2ccc3c4[nH]c5cccc(Br)c5c4c4c(c3c21)C(=O)NC4=O`: the IC50 in experiment [6] is 0.136 µM; in experiment [1] it was 0.171 µM; in experiment [2], 4.71 µM; in experiment [3] it was 3.52 µM; in experiment [4], more than 20 µM.

On to `Cn1ccc2ccc3c4[nH]c5cccc(CO)c5c4c4c(c3c21)C(=O)NC4=O`, for which the IC50 in experiment [5] is more than 2 µM; in experiment [6], 0.216 µM; in experiment [1], 0.155 µM; in experiment [2], more than 10 µM; in experiment [3], more than 10 µM; in experiment [4] it was more than 20 µM.

`O=C1NC(=O)c2c1c1c(ccc3cc[nH]c31)c1[nH]c3ccccc3c21`: the IC50 is 0.064 µM in experiment [5]; 0.022 µM in experiment [6]; 0.036 µM in experiment [1]; 1.44 µM in experiment [2]; 1.43 µM in experiment [3]; more than 2 µM in experiment [4].

Consider `Cn1ccc2ccc3c(c4c(c5c6ccccc6n(CCCO)c35)C(=O)NC4=O)c21`, for which the half-inhibitory concentration (IC50) in experiment [5] is 0.067 µM; in experiment [6], 0.042 µM; in experiment [1], 0.096 µM; in experiment [2], 1.36 µM; in experiment [3], 1.13 µM; in experiment [4], more than 2 µM.

With `Cn1ccc2cc(F)c3c(c4c(c5c6ccccc6n(CCCO)c53)C(=O)NC4=O)c21`, the IC50 in experiment [6] is 0.448 µM; in experiment [1] it was 0.346 µM; in experiment [2], 2.39 µM; in experiment [3], 2.48 µM.

Turning to `Cn1ccc2ccc3c4[nH]c5cc(F)ccc5c4c4c(c3c21)C(=O)NC4=O`, the IC50 in experiment [5] was 0.009 µM; in experiment [6], 0.011 µM; in experiment [1], 0.038 µM; in experiment [2] it was more than 10 µM; in experiment [3], more than 10 µM; in experiment [4], more than 20 µM.

In the case of `Cc1cc2ccn(C)c2c2c3c(c4c5ccc(C(F)(F)F)cc5[nH]c4c12)C(=O)NC3=O`, the IC50 in experiment [5] is more than 2 µM; in experiment [6], 0.025 µM; in experiment [1], 0.092 µM; in experiment [2], 8.78 µM; in experiment [3], 2.42 µM; in experiment [4], more than 20 µM.

As to `Cc1cc2ccn(C)c2c2c3c(c4c5ccccc5[nH]c4c12)C(=O)NC3=O`, the IC50 in experiment [5] is 0.07 µM; in experiment [6], 0.002 µM; in experiment [1], 0.028 µM; in experiment [2] it was 1.98 µM; in experiment [3], 2.26 µM; in experiment [4] it was more than 20 µM.

For the compound `COc1ccc2c3c4c(c5c(ccc6ccn(C)c65)c3n(CCO)c2c1)C(=O)NC4=O`, the IC50 in experiment [5] was 0.101 µM; in experiment [6], 0.024 µM; in experiment [1] it was 0.047 µM; in experiment [2] it was 4.07 µM; in experiment [3] it was 1.32 µM; in experiment [4], 1.62 µM.

As for `Cc1cc2ccn(C)c2c2c3c(c4c5ccccc5n(CCCO)c4c12)C(=O)NC3=O`, the IC50 amounted to 0.673 µM in experiment [1], 3.85 µM in experiment [2] and 4.75 µM in experiment [3].

With `Cc1ccc2[nH]c3c4ccc5ccn(C)c5c4c4c(c3c2c1)C(=O)NC4=O`, the IC50 worked out at 1.07 µM in experiment [5]; 0.407 µM in experiment [6]; 0.393 µM in experiment [1]; 2.87 µM in experiment [2]; 3.35 µM in experiment [3]; 4.06 µM in experiment [4].

Consider `COc1cccc2[nH]c3c4ccc5ccn(C)c5c4c4c(c3c12)C(=O)NC4=O`, for which the IC50 in experiment [1] is more than 2 µM; in experiment [2] it was more than 10 µM; in experiment [3], more than 10 µM.

Take `Cn1ccc2ccc3c4[nH]c5ccc(F)cc5c4c4c(c3c21)C(=O)NC4=O`: the IC50 in experiment [5] was more than 0.2 µM; in experiment [6], 0.039 µM; in experiment [1], 0.084 µM; in experiment [2] it was more than 10 µM; in experiment [3] it was more than 10 µM; in experiment [4], more than 20 µM.

For the compound `COc1ccc2c(c1)[nH]c1c3ccc4cc[nH]c4c3c3c(c21)C(=O)NC3=O`, the IC50 stood at 0.125 µM in experiment [5]; 0.036 µM in experiment [6]; 0.067 µM in experiment [1]; 2.16 µM in experiment [2]; 1.92 µM in experiment [3]; 11.4 µM in experiment [4].

With `O=C1NC(=O)c2c1c1c3ccccc3[nH]c1c1[nH]c3ccccc3c21` [STAUROSPORINE AGLYCON], the IC50 in experiment [5] was 0.897 µM; in experiment [1], 0.14 µM; in experiment [2], 0.85 µM; in experiment [3] it was 0.59 µM.

For `Cn1ccc2ccc3c4[nH]c5cccc(F)c5c4c4c(c3c21)C(=O)NC4=O`, the IC50 was more than 2 µM in experiment [5]; 0.081 µM in experiment [6]; 0.071 µM in experiment [1]; more than 2 µM in experiment [2]; more than 10 µM in experiment [3]; more than 20 µM in experiment [4].

Take `Cc1ccc2c(c1)[nH]c1c3ccc4ccn(C)c4c3c3c(c21)C(=O)NC3=O`: the IC50 is 0.32 µM in experiment [5]; 0.018 µM in experiment [6]; 0.048 µM in experiment [1]; 3.84 µM in experiment [2]; 3.41 µM in experiment [3]; more than 20 µM in experiment [4].

For `COc1ccc2[nH]c3c4ccc5ccn(C)c5c4c4c(c3c2c1)C(=O)NC4=O`, the IC50 in experiment [5] is more than 2 µM; in experiment [6], 0.68 µM; in experiment [1], 0.519 µM; in experiment [2], more than 10 µM; in experiment [3] it was more than 10 µM; in experiment [4] it was more than 20 µM.

`Cn1ccc2ccc3c4[nH]c5cc(OCc6ccccc6)ccc5c4c4c(c3c21)C(=O)NC4=O`: the IC50 is 0.328 µM in experiment [5]; 0.025 µM in experiment [6]; 0.123 µM in experiment [1]; 6.52 µM in experiment [2]; more than 10 µM in experiment [3]; 3.29 µM in experiment [4].

For `O=C1NC(=O)c2c1c1c(ccc3cc[nH]c31)c1c2c2ccccc2n1CCCO`, the IC50 in experiment [5] is 0.008 µM; in experiment [6], 0.012 µM; in experiment [1], 0.066 µM; in experiment [2] it was 0.75 µM; in experiment [3], 1.07 µM; in experiment [4], more than 20 µM.

On to `Cn1ccc2ccc3c4[nH]c5ccc(C(F)(F)F)cc5c4c4c(c3c21)C(=O)NC4=O`, for which the IC50 was more than 2 µM in experiment [1], 7.04 µM in experiment [2] and 7.85 µM in experiment [3].

On to `COc1ccc2c(c1)[nH]c1c2c2c(c3c1c(C)cc1ccn(C)c13)C(=O)NC2=O`, for which the IC50 was 0.057 µM in experiment [5]; 0.007 µM in experiment [6]; 0.042 µM in experiment [1]; 1.43 µM in experiment [2]; 1.3 µM in experiment [3]; more than 20 µM in experiment [4].

`Cn1ccc2ccc3c4[nH]c5ccc(Br)cc5c4c4c(c3c21)C(=O)NC4=O` registered an IC50 in experiment [1] of more than 2 µM.

On to `Cc1cc2ccn(C)c2c2c3c(c4c5ccc(F)cc5[nH]c4c12)C(=O)NC3=O`, for which the IC50 in experiment [5] was 0.023 µM; in experiment [6], 0.006 µM; in experiment [1] it was 0.05 µM; in experiment [2], 0.58 µM; in experiment [3], 1.02 µM; in experiment [4], more than 20 µM.

As for `Cn1ccc2ccc3c4[nH]c5cc(C(F)(F)F)ccc5c4c4c(c3c21)C(=O)NC4=O`, the IC50 in experiment [5] is 0.225 µM; in experiment [6], 0.009 µM; in experiment [1] it was 0.076 µM; in experiment [2], more than 10 µM; in experiment [3], 3.51 µM; in experiment [4], more than 20 µM.

As for `COc1cccc2c1[nH]c1c3ccc4ccn(C)c4c3c3c(c21)C(=O)NC3=O`, the IC50 in experiment [5] was more than 2 µM; in experiment [6] it was 0.04 µM; in experiment [1] it was 0.062 µM; in experiment [2], 1 µM; in experiment [3] it was 2.71 µM; in experiment [4] it was more than 20 µM.

On to `Cn1ccc2ccc3c4[nH]c5cc(Br)ccc5c4c4c(c3c21)C(=O)NC4=O`, for which the IC50 in experiment [5] was 0.075 µM; in experiment [6], less than 0.013 µM; in experiment [1], 0.038 µM; in experiment [2], 1.08 µM; in experiment [3], 0.72 µM; in experiment [4], more than 20 µM.

In the case of `CCn1ccc2ccc3c4[nH]c5ccccc5c4c4c(c3c21)C(=O)NC4=O`, the half-inhibitory concentration (IC50) in experiment [6] is 0.019 µM; in experiment [1] it was 0.059 µM; in experiment [2], 4.52 µM; in experiment [3] it was more than 10 µM; in experiment [4] it was more than 2 µM.

In the case of `O=C1NC(=O)c2c1c1c(ccc3cc[nH]c31)c1[nH]c3cc(OCc4ccccc4)ccc3c21`, the IC50 in experiment [6] was 0.378 µM; in experiment [1], 0.187 µM; in experiment [2], more than 10 µM; in experiment [3], more than 10 µM.
